Measurements published in patent publication US20140328809A1, “METHODS OF INDUCING CHONDROGENESIS IN MESENCHYMAL STEM CELLS USING SYNTHETIC TRITERPENOIDS” (TRUSTEES OF DARTMOUTH COLLEGE, priority 2011, published 2014).

Tests used:
SOX-9 = experiment: Quantitative RT-PCR analysis on calvaria: SOX-9; assay type: cell-based, mouse; conditions: 7 days of culture, normalized to control = 1.00
Method: (§1) All chemicals were from Sigma-Aldrich. Primers for RT-PCR were from Applied Biosystems. The isolation of calvaria was essentially performed as described previously (Garrett, 2003; Garret et al., 2003). The calvaria were cultured in Biggers, Gwatkins, Judah medium supplemented with 1 mg/mL of bovine serum albumin (Cohn fraction V), 100 U/mL each of penicillin/streptomycin, and 0.292 mg/mL of glutaimine. On Day 1, the calvaria were treated with CDDO-Im or CDDO-EA. On Day 4, the medium was replaced with fresh medium, again containing either CDDO-Im or CDDO-EA. On Day 7, the calvaria were collected and either stored at −80° C. for further RNA analysis or fixed in 10% buffered formalin for 24 h and transferred to 80% ethanol for histological analysis.
(§2) After 7 days of culture, RNA was isolated from the calvaria and quantitative RT-PCR analysis was performed for more than 15 different markers including: SOX9 (a transcription factor specific for cartilage), collagen type II (alpha 1), all three isoforms of TGF-β, BMPs 2 and 4, BMP receptor II, Smads 3, 4, 6, and 7, tissue inhibitors of metalloproteinases (TIMP-1 and TIMP-2), and matrix metalloproteinase-9 (MMP-9). […] Both triterpenoids are strong inhibitors of the expression of MMP-9; CDDO-EA (200 nM), caused almost 80% inhibition of the expression of this metalloproteinase, which is known to be involved in the degradation of cartilage (Shinoda et al., 2008).

Col II alpha1 = experiment: Quantitative RT-PCR analysis on calvaria: Col II alpha1; assay type: cell-based, mouse; conditions: 7 days of culture, normalized to control = 1.00
Method: as §1, §2

TGF-β1 = experiment: Quantitative RT-PCR analysis on calvaria: TGF-β1; assay type: cell-based, mouse; conditions: 7 days of culture, normalized to control = 1.00
Method: as §1, §2

TGF-β2 = experiment: Quantitative RT-PCR analysis on calvaria: TGF-β2; assay type: cell-based, mouse; conditions: 7 days of culture, normalized to control = 1.00
Method: as §1, §2

TGF-β3 = experiment: Quantitative RT-PCR analysis on calvaria: TGF-β3; assay type: cell-based, mouse; conditions: 7 days of culture, normalized to control = 1.00
Method: as §1, §2

BMP-2 = experiment: Quantitative RT-PCR analysis on calvaria: BMP-2; assay type: cell-based, mouse; conditions: 7 days of culture, normalized to control = 1.00
Method: as §1, §2

BMP-4 = experiment: Quantitative RT-PCR analysis on calvaria: BMP-4; assay type: cell-based, mouse; conditions: 7 days of culture, normalized to control = 1.00
Method: as §1, §2

BMPRII = experiment: Quantitative RT-PCR analysis on calvaria: BMPRII; assay type: cell-based, mouse; conditions: 7 days of culture, normalized to control = 1.00
Method: as §1, §2

Smad3 = experiment: Quantitative RT-PCR analysis on calvaria: Smad3; assay type: cell-based, mouse; conditions: 7 days of culture, normalized to control = 1.00
Method: as §1, §2

Smad4 = experiment: Quantitative RT-PCR analysis on calvaria: Smad4; assay type: cell-based, mouse; conditions: 7 days of culture, normalized to control = 1.00
Method: as §1, §2

Smad6 = experiment: Quantitative RT-PCR analysis on calvaria: Smad6; assay type: cell-based, mouse; conditions: 7 days of culture, normalized to control = 1.00
Method: as §1, §2

Smad7 = experiment: Quantitative RT-PCR analysis on calvaria: Smad7; assay type: cell-based, mouse; conditions: 7 days of culture, normalized to control = 1.00
Method: as §1, §2

TIMP-1 = experiment: Quantitative RT-PCR analysis on calvaria: TIMP-1; assay type: cell-based, mouse; conditions: 7 days of culture, normalized to control = 1.00
Method: as §1, §2

TIMP-2 = experiment: Quantitative RT-PCR analysis on calvaria: TIMP-2; assay type: cell-based, mouse; conditions: 7 days of culture, normalized to control = 1.00
Method: as §1, §2

MMP-9 = experiment: Quantitative RT-PCR analysis on calvaria: MMP-9; assay type: cell-based, mouse; conditions: 7 days of culture, normalized to control = 1.00
Method: as §1, §2

newborn mouse calvaria = experiment: Histological analysis (toluidine blue) of chondrogenesis in newborn mouse calvarial organ cultures; assay type: cell-based; conditions: 200 nM, 7 days, FIG. 1a, at least 3 sets of replicate experiments
Method: as §1
(§3) After fixation for 24 h, the calvaria were decalcified in EDTA, embedded in paraffin, and cut into 4 μm sections. The sections were stained either with modified hematoxylin and eosin or with toluidine blue (1% in 70% ethanol for 20 min, followed by destaining in 70%, 90%, and 100% ethanol for 15 seconds), placed in xylene twice, and then mounted (Garret, 2003). Procedures for immunofluroescence were performed essentially as previously described (Medici et al., 2010). […]

[1] = tested on: collagen type II (COL2A1); experiment: Immunohistochemical analysis of collagen type II in calvaria; assay type: cell-based, mouse; conditions: 200 nM, FIG. 1b
Method: as §1, §3

SOX9 = experiment: Western blot of chondrocyte marker SOX9 in bone marrow-derived MSCs; assay type: cell-based, human; conditions: 100 nM for 7 days; MSCs in chondrogenic culture medium; not detectable in control
Method: (§4) Human bone marrow-derived stromal cells (ScienCell Research Laboratories), which contain a population of responsive mesenchymal stem cells, were grown in mesenchymal stem cell medium (ScienCell Research Laboratories). MSCs were serum-starved 24 hours prior to all experimental conditions. The synthesis of the synthetic triterpenoids, CDDO-Im and CDDO-EA, have been previously described (Sporn et al., 2011).
(§5) For directed chondrocytic differentiation, MSCs were grown in StemPro chondrogenic culture medium (Invitrogen) prepared by the technique of Kassem (2004), which is incorporated herein by reference. See also Medici et al. (2010), which is also incorporated herein by reference. CDDO-Im and CDDO-EA were added to the cultures at a concentration of 100 nM for 7 days. Western blot analysis was performed using the following antibodies at concentrations (and using protocols) recommended by the respective manufacturers: SOX9, COL2A1 (Santa Cruz Biotechnology), Aggrecan (Abcam), β-actin (Sigma-Aldrich). β-actin was used as a loading control. HRP-conjugated IgG TrueBlot reagents (eBioscience) were used at a dilution of 1:1000.

COL2A1 = experiment: Western blot of chondrocyte marker COL2A1 in bone marrow-derived MSCs; assay type: cell-based, human; conditions: 100 nM for 7 days; MSCs in chondrogenic culture medium; not detectable in control
Method: as §4, §5

Aggrecan = experiment: Western blot of chondrocyte marker Aggrecan in bone marrow-derived MSCs; assay type: cell-based, human; conditions: 100 nM for 7 days; MSCs in chondrogenic culture medium; not detectable in control
Method: as §4, §5

Compound: CC1(C)CC[C@]2(C(=O)n3ccnc3)CC[C@]3(C)[C@H](C(=O)C=C4[C@@]5(C)C=C(C#N)C(=O)C(C)(C)[C@@H]5CC[C@]43C)[C@@H]2C1 [CDDO-Im, CDDO-Imidazolide]
- SOX-9 expression (quantitative RT-PCR) (SOX-9; 50 nM): 1.26 ± 0.08
- SOX-9 expression (quantitative RT-PCR) (SOX-9; 200 nM): 1.33 ± 0.05
- SOX-9 expression (quantitative RT-PCR) (SOX-9; 500 nM): 1.83 ± 0.13
- Col II alpha1 expression (quantitative RT-PCR) (Col II alpha1; 50 nM): 1.45 ± 0.09
- Col II alpha1 expression (quantitative RT-PCR) (Col II alpha1; 200 nM): 1.32 ± 0.23
- Col II alpha1 expression (quantitative RT-PCR) (Col II alpha1; 500 nM): 1.72 ± 0.39
- TGF-β1 expression (quantitative RT-PCR) (TGF-β1; 50 nM): 0.96 ± 0.07
- TGF-β1 expression (quantitative RT-PCR) (TGF-β1; 200 nM): 1.08 ± 0.12
- TGF-β1 expression (quantitative RT-PCR) (TGF-β1; 500 nM): 1.46 ± 0.12
- TGF-β2 expression (quantitative RT-PCR) (TGF-β2; 50 nM): 1.17 ± 0.05
- TGF-β2 expression (quantitative RT-PCR) (TGF-β2; 200 nM): 1.15 ± 0.09
- TGF-β2 expression (quantitative RT-PCR) (TGF-β2; 500 nM): 1.17 ± 0.10
- TGF-β3 expression (quantitative RT-PCR) (TGF-β3; 50 nM): 1.30 ± 0.07
- TGF-β3 expression (quantitative RT-PCR) (TGF-β3; 200 nM): 1.52 ± 0.16
- TGF-β3 expression (quantitative RT-PCR) (TGF-β3; 500 nM): 1.66 ± 0.13
- BMP-2 expression (quantitative RT-PCR) (BMP-2; 50 nM): 1.17 ± 0.07
- BMP-2 expression (quantitative RT-PCR) (BMP-2; 200 nM): 1.60 ± 0.19
- BMP-2 expression (quantitative RT-PCR) (BMP-2; 500 nM): 3.14 ± 0.53
- BMP-4 expression (quantitative RT-PCR) (BMP-4; 50 nM): 0.97 ± 0.05
- BMP-4 expression (quantitative RT-PCR) (BMP-4; 200 nM): 0.98 ± 0.06
- BMP-4 expression (quantitative RT-PCR) (BMP-4; 500 nM): 1.35 ± 0.22
- BMPRII expression (quantitative RT-PCR) (BMPRII; 50 nM): 1.09 ± 0.06
- BMPRII expression (quantitative RT-PCR) (BMPRII; 200 nM): 1.22 ± 0.11
- BMPRII expression (quantitative RT-PCR) (BMPRII; 500 nM): 1.46 ± 0.14
- Smad3 expression (quantitative RT-PCR) (Smad3; 50 nM): 0.97 ± 0.07
- Smad3 expression (quantitative RT-PCR) (Smad3; 200 nM): 0.90 ± 0.05
- Smad3 expression (quantitative RT-PCR) (Smad3; 500 nM): 1.35 ± 0.19
- Smad4 expression (quantitative RT-PCR) (Smad4; 50 nM): 0.96 ± 0.06
- Smad4 expression (quantitative RT-PCR) (Smad4; 200 nM): 1.03 ± 0.09
- Smad4 expression (quantitative RT-PCR) (Smad4; 500 nM): 1.26 ± 0.09
- Smad6 expression (quantitative RT-PCR) (Smad6; 50 nM): 0.95 ± 0.05
- Smad6 expression (quantitative RT-PCR) (Smad6; 200 nM): 1.23 ± 0.14
- Smad6 expression (quantitative RT-PCR) (Smad6; 500 nM): 1.77 ± 0.19
- Smad7 expression (quantitative RT-PCR) (Smad7; 50 nM): 1.05 ± 0.07
- Smad7 expression (quantitative RT-PCR) (Smad7; 200 nM): 1.32 ± 0.14
- Smad7 expression (quantitative RT-PCR) (Smad7; 500 nM): 1.78 ± 0.18
- TIMP-1 expression (quantitative RT-PCR) (TIMP-1; 50 nM): 1.43 ± 0.19
- TIMP-1 expression (quantitative RT-PCR) (TIMP-1; 200 nM): 1.83 ± 0.18
- TIMP-1 expression (quantitative RT-PCR) (TIMP-1; 500 nM): 3.00 ± 0.65
- TIMP-2 expression (quantitative RT-PCR) (TIMP-2; 50 nM): 1.24 ± 0.10
- TIMP-2 expression (quantitative RT-PCR) (TIMP-2; 200 nM): 1.67 ± 0.19
- TIMP-2 expression (quantitative RT-PCR) (TIMP-2; 500 nM): 2.62 ± 0.29
- MMP-9 expression (quantitative RT-PCR) (MMP-9; 50 nM): 0.73 ± 0.16
- MMP-9 expression (quantitative RT-PCR) (MMP-9; 200 nM): 0.44 ± 0.12
- MMP-9 expression (quantitative RT-PCR) (MMP-9; 500 nM): 0.26 ± 0.03
- induction of chondrogenesis (metachromatic toluidine blue purple staining, proteoglycans) (newborn mouse calvaria): marked ability to induce chondrogenesis
- formation of collagen type II (COL2A1), red fluorescence [1]: induce the formation of collagen type II
- induction of SOX9 (Western blot) (SOX9): clear induction
- induction of COL2A1 (Western blot) (COL2A1): clear induction
- induction of Aggrecan (Western blot) (Aggrecan): clear induction
